Entries after “also recorded” stand apart in the source; their conditions may differ. Like-named read-outs stand apart in the source and are kept apart here.
What was measured:
[1] = test system: synaptic transmission in the hippocampus; assay: Extracellular fEPSP recording in hippocampal slices (synaptic transmission); format: cell-based, rat
Experimental: (§1) Preparation of hippocampal slices: Sagittal slices of hippocampus (300-400 μm) were prepared from male Sprague Dawley rats, at postnatal days 12 to 20. Rats were kept on a 12-hour light-dark cycle with slices made 90 minutes after entering the light cycle. […] The brain was removed, cut down the mid line and the two sides of the brain stuck down to a metal base plate. […] Slices were stored at 34° C. for 1 to 6 hours in aCSF (1 mM MgCl2, 2 mM CaCl2) before use.
Extracellular recording: A slice was transferred to the recording chamber, submerged in aCSF and perfused at 4 to 6 mL/min (32° C.). The slice was placed on a grid allowing perfusion above and below the tissue and all tubing was gas tight (to prevent loss of oxygen). For extracellular recording, an aCSF filled microelectrode was placed on the surface of stratum radiatum in CA1. […] For fEPSPs a 10 to 20 minute baseline was recorded at a stimulus intensity that gave 40 to 50% of the maximal response. […] For fEPSP slope, a 1 ms linear region after the fibre volley was measured. Extracellular recordings were made independently on two electrophysiology rigs.
Statistical significance was tested using the unpaired t-test and one-way and two-way ANOVAs with Bonferroni correction for multiple comparisons.
(§2) Data Analysis. […] Statistical significance was tested as indicated in the text using paired or unpaired t-tests or one-way or two-way ANOVAs with repeated measures (RM) as appropriate. Bonferroni corrections for multiple comparisons were performed. All in vitro cell signalling assay data was analysed using Prism 7.0e (Graphpad software, San Diego, Calif.), with all concentration-response curves being fitted using a 3 parameter logistic equation to calculate response range and IC50. All cAMP data was normalised to a forskolin concentration-response curve ran in parallel to each assay. […] Radioligand displacement curves were fitted to the one-site competition binding equation yielding log Ki values. […] To determine the extent of ligand-induced recruitment of β-arrestin2-YFP to either the A1R or A3R, the BRET signal was calculated by subtracting the 530 nm/450 nm emission for vehicle-treated cells from ligand-treated cells (ligand-induced ΔBRET). ΔBRET for each concentration at 5 minutes (maximum response) was used to produce concentration-response curves.

[2] = test system: seizure activity induced in hippocampal slices; assay: Seizure model in hippocampal slices (no added Mg2+, 6 mM K+ aCSF); format: cell-based, rat; settings: adenosine 20-100 μM, NECA 300 nM, CPA 300 nM, BnOCPA 300 nM to 1 μM
Experimental: as §1
Seizure model: Seizure activity was induced in hippocampal slices using aCSF which contained no added Mg^2+ and with the total K^+ concentration increased to 6 mM with KCl. Removal of extracellular Mg^2+ facilitates NMDA receptor activation producing long lasting EPSPS, which can sum together to produce tonic activation. Increasing the extracellular concentration of K^+ depolarises neurons leading to firing and release of glutamate to sustain activity. Both the increase in K^+ concentration and removal of Mg^2+ are required to produce spontaneous activity in hippocampal slices. Spontaneous activity was measured with an aCSF-filled microelectrode placed within stratum radiatum in CA1.

Goa = format: cell-based, human; settings: PTX-treated cells
Experimental: Cells were then incubated for 24 hours before addition of 100 ng/ml PTX, to inhibit activity of endogenous Gαi/o, and then incubated for a further 16-18 hours. Transfected cells were then assayed as per cAMP inhibition experiments, but co-stimulated with agonist and 100 nM forskolin.
as §2

[3] = test system: membrane potential of pyramidal cells; assay: Whole cell current clamp recording of membrane potential, CA1 pyramidal cells; format: cell-based, rat
Experimental: as §1
Whole cell patch clamp recording from hippocampal pyramidal cells: A slice was transferred to the recording chamber and perfused at 3 mL/min with aCSF at 32±0.5° C. Slices were visualised using IR-DIC optics with an Olympus BX151W microscope (Scientifica) and a CCD camera (Hitachi). […] Voltage and current recordings were obtained using an Axon Multiclamp 700B amplifier (Molecular Devices, USA) and digitised at 20 KHz. Data acquisition and analysis was performed using Pclamp 10 (Molecular Devices). For voltage clamp experiments, CA1 pyramidal cells were held at −60 mV. Peptides to interfere with G protein signalling were introduced via the patch pipette into the recorded cell.

[4] = test system: adenosine-induced outward current in CA1 pyramidal cells; assay: Whole-cell voltage clamp, adenosine-induced outward current with G protein interfering peptides; format: cell-based, rat; settings: for mean amplitude of the adenosine-induced outward current with intracellular peptide: peptide 100 μM via patch pipette
Experimental: Whole cell patch clamp recording from hippocampal pyramidal cells: A slice was transferred to the recording chamber and perfused at 3 mL/min with aCSF at 32±0.5° C. Slices were visualised using IR-DIC optics with an Olympus BX151W microscope (Scientifica) and a CCD camera (Hitachi). Whole-cell current clamp recordings were made from pyramidal cells in area CA1 of the hippocampus using patch pipettes (5 to 10 MΩ) manufactured from thick walled glass (Harvard Apparatus, Edenbridge UK) and containing (mM): potassium gluconate 135, NaCl 7, HEPES 10, EGTA 0.5, phosphocreatine 10, MgATP 2, NaGTP 0.3 and biocytin 1 mg/mL (290 mOSM, pH 7.2). Voltage and current recordings were obtained using an Axon Multiclamp 700B amplifier (Molecular Devices, USA) and digitised at 20 KHz. Data acquisition and analysis was performed using Pclamp 10 (Molecular Devices). For voltage clamp experiments, CA1 pyramidal cells were held at −60 mV. Peptides to interfere with G protein signalling were introduced via the patch pipette into the recorded cell. […].
Drugs: Drugs were made up as stock solutions (1 to 10 mM) and then diluted in aCSF on the day of use. Compounds were dissolved in dimethyl-sulphoxide (DMSO, 0.01% final concentration of DMSO). […]. Peptides for interfering with G protein signalling were obtained from Hello Bio (Bristol, UK) and were based on published sequences (Varani et al., Adv Exp Med Biol 1051, 193-232 (2017)). […] The scrambled version was […]. […] Peptides were made up as stock solutions (2 mM) and stored at −20° C. The stock solutions were dissolved in filtered intracellular solution just before use.

isolated frog heart = assay: Frog heart preparation, heart rate; set-up: species or system Xenopus leavis
Experimental: Frog heart preparation: Xenopus […] frogs (young adult males) were supplied from Portsmouth Xenopus Resource Centre. Frogs were euthanized with MS222 (0.2% at a pH of 7), decapitated and pithed. The animals were dissected to reveal the heart and the pericardium carefully removed. Heart contractions were measured with a force transducer (AD instruments). Heart rate was acquired via a PowerLab […] (AD instruments) controlled by LabChart 7 (AD instruments). The heart was regularly washed with ringer and drugs were applied directly to the heart.

[5] = test system: urethane-anaesthetised, spontaneously breathing adult rats; assay: In vivo anaesthetised rat preparation, heart rate and mean arterial blood pressure
[6] = rat hippocampal slices, CA1, read-out: IC50, inhibition of synaptic transmission (fEPSP slope)
[7] = IV, adenosine 1 mg·kg^−1, BnOCPA 10 μg·kg^−1, CPA 420 ng·kg^−1

CCNC(=O)[C@H]1O[C@@H](n2cnc3c(N)ncnc32)[C@H](O)[C@@H]1O [NECA, 5′-(N-Ethylcarboxamido) adenosine]
IC50 [1, 6]: 0.0083 ± 0.003 µM | effect on seizure activity [2]: rapidly and reversibly abolished seizure activity; also recorded: blocks seizure activity in a reversible manner | activation of / coupling to Goa (Goa): coupled to a range of Gi/o subunits, and in particular Goa

Cn1c(=O)c2[nH]c(C3CCCC3)nc2n(C)c1=O [8-CPT, 8-cyclopentyltheophylline]
effect of the A1 receptor antagonist on agonist inhibition of synaptic transmission ([1]; 8-CPT 2 μM (adenosine) or 4 μM (BnOCPA)): reversed the inhibition of synaptic transmission caused by adenosine

OC[C@H]1O[C@@H](n2cnc3c(N[C@@H]4CCC[C@H]4O)ncnc32)[C@H](O)[C@@H]1O [HOCPA]
activation of / coupling to Goa (Goa): coupled to a range of Gi/o subunits, and in particular Goa

NCC(CC(=O)O)c1ccc(Cl)cc1 (stereo not drawn) [baclofen]
mean hyperpolarisation produced by baclofen in the presence of BnOCPA ([3]; BnOCPA 300 nM): 6.5±0.43 mV | membrane potential after baclofen in the presence of BnOCPA (example) ([3]; baclofen (10 µM), BnOCPA 300 nM, from −67 mV): −74 mV | mean hyperpolarisation produced by baclofen in control conditions ([3]; without BnOCPA): 6.3±0.76 mV

Nc1ncnc2c1ncn2[C@@H]1O[C@H](CO)[C@@H](O)[C@H]1O [adenosine]
IC50 ([1]; Rattus norvegicus, read-out: IC50, inhibition of synaptic transmission by adenosine with 8-CPT, in the presence of 2 μM 8-CPT): 125 ± 10 µM | IC50 [1, 6]: 20 ± 4.3 µM | effect on seizure activity [2]: reversibly blocks seizure activity | effect on seizure activity ([2]; listed as Adenosine): rapidly and reversibly abolished seizure activity | membrane potential after agonist ([3]; adenosine 100 μM, CPA 300 nM): −74.1±1.5 mV | mean change of membrane potential (hyperpolarisation) ([3]; adenosine 100 μM, CPA 300 nM, BnOCPA 300 nM-1 μM): −4.7±0.5 mV | mean amplitude of the outward current induced by adenosine ([4]; adenosine 10 μM, control conditions, held at −60 mV): 43.9±3.1 pA | reduction of heart rate (isolated frog heart; adenosine 30 μM): about 15% | reduction of heart rate by adenosine following BnOCPA (isolated frog heart; adenosine 30 μM after BnOCPA 300 nM): 0.27±0.2 BPM | reduction / change of heart rate (isolated frog heart; adenosine 30 μM, BnOCPA 300 nM, CPA): 6.25±0.6 BPM | heart rate after application (isolated frog heart; adenosine 30 μM, from 42±1.2 BPM): 35.5±1.2 BPM | MAP after adenosine co-injected with BnOCPA ([5]; IV co-injection): 51±4 mmHg | change of HR by adenosine co-injected with BnOCPA ([5]; IV co-injection): about 12% | mean change of HR by adenosine co-injected with BnOCPA ([5]; IV co-injection): 51±4 BPM | change of HR [5, 7]: about 66% | heart rate (HR) after injection [5, 7]: 147±12 BPM | mean arterial blood pressure (MAP) after injection [5, 7]: 46±4 mmHg | reduction of MAP ([5]; adenosine IV): about 47% | effect on HR and BP ([5]; single anaesthetised rat preparation, IV): HR and BP depression

Goa interfering peptide: peptide interfering with G protein signalling, sequence MGIANNLRGCGLY
effect of peptide on adenosine-induced outward current [4]: caused a significant attenuation of the adenosine-induced outward current | mean amplitude of the adenosine-induced outward current with intracellular peptide ([4]; adenosine 10 μM): 20.9±3.6 pA

Gob interfering peptide: peptide interfering with G protein signalling, sequence MGIQNNLKYIGIC
effect of peptide on adenosine-induced outward current [4]: neither the scrambled peptide nor the Gob peptide had any effect on current amplitude | mean amplitude of the adenosine-induced outward current with intracellular peptide ([4]; adenosine 10 μM): 37.4±2.2 pA

scrambled peptide: scrambled version of the Goa peptide, sequence LNRGNAYLCIGMG
effect of peptide on adenosine-induced outward current [4]: neither the scrambled peptide nor the Gob peptide had any effect on current amplitude | mean amplitude of the adenosine-induced outward current with intracellular peptide ([4]; adenosine 10 μM): 43.4±2.4 pA

From patent US20220152077A1 (THE UNIVERSITY OF WARWICK, priority 2019, published 2022)
